Test results: the supplement of paper PMC4862054

Experiments:
Assay in all cases: normalised response (% of control), CellTiter-Glo; higher = more viable cells (100 = DMSO, 0 = benzethonium chloride kill control)
Details in all cases: incubation time: 72 h
CAL-51 = test system: CAL-51
Method: (§1)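 DSRT, 72 h incubation, CellTox Green / CellTiter-Glo readout. Signal is normalised to DMSO and benzethonium chloride controls. Value is the normalised response at the highest dose.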

MDA-MB-453 = test system: MDA-MB-453
Method: as §1

MDA-MB-436 = test system: MDA-MB-436
Method: as §1

HCC1143 = test system: HCC1143
Method: as §1

MDA-MB-231 = test system: MDA-MB-231
Method: as §1

DU-4475 = test system: DU-4475
Method: as §1

MDA-MB-468 = test system: MDA-MB-468
Method: as §1

CAL-120 = test system: CAL-120
Method: as §1

HCC1599 = test system: HCC1599
Method: as §1

CAL-85-1 = test system: CAL-85-1
Method: as §1

MFM-223 = test system: MFM-223
Method: as §1

HCC1937 = test system: HCC1937
Method: as §1

BT-474 = test system: BT-474
Method: as §1

Hs578T = test system: Hs578T
Method: as §1

CAL-148 = test system: CAL-148
Method: as §1

| SMILES | normalised response (CAL-51) [%] | normalised response (MDA-MB-453) [%] | normalised response (MDA-MB-436) [%] | normalised response (HCC1143) [%] | normalised response (MDA-MB-231) [%] | normalised response (DU-4475) [%] | normalised response (MDA-MB-468) [%] | normalised response (CAL-120) [%] | normalised response (HCC1599) [%] | normalised response (CAL-85-1) [%] | normalised response (MFM-223) [%] | normalised response (HCC1937) [%] | normalised response (BT-474) [%] | normalised response (Hs578T) [%] | normalised response (CAL-148) [%] |
| --- | --- | --- | --- | --- | --- | --- | --- | --- | --- | --- | --- | --- | --- | --- | --- |
| O=P1(N(CCCl)CCCl)NCCCO1 (stereo not given) [Cyclophosphamide] (40000 nM) | 131 | 101 | 96.3 | 105 | 99.9 | 102 | 93.2 | 94.4 | 92.9 | 98.8 | 108 | 95.8 | 92.8 | 106 | 101 |
| COc1cc2/c(=N/c3ccc(Br)cc3F)nc[nH]c2cc1OCC1CCN(C)CC1 [Vandetanib] (1000 nM) | 99.1 | 74.5 | 86 | 86.4 | 79.1 | 87.8 | 69.9 | 89.6 | 76.2 | 58.9 | 64.9 | 78 | 79.3 | 91.7 | 78.9 |
| N#Cc1ccc(COC[C@H]2O[C@@H](n3c(NCc4ccc(Cl)c(Cl)c4)nc4c(N)ncnc43)[C@H](O)[C@@H]2O)cc1 (10000 nM) | 88 | 75 | 85.1 | 66.2 | 74.5 | 65.6 | 72.5 | 83.7 | 65.7 | 86.3 | 74.3 | 51.6 | 68.2 | 78.2 | 83.7 |
| Cc1ccc(NC(=O)c2ccc(CN3CCN(C)CC3)cc2)cc1Nc1nc(-c2cccnc2)cs1 [Masitinib] (10000 nM) | 59.1 | 55.6 | 51.7 | 80.5 | 51.5 | 99.4 | 36.6 | 80.8 | 49.6 | 64.4 | 73 | 65 | 33.2 | 96.6 | 97.7 |
| COc1cc(OC2CCN(C)CC2)ccc1Nc1ncc2c(n1)n(C1CCCC1)c(=O)n2C [AZ 3146] (10000 nM) | 48.9 | 95.7 | 79.3 | 70.4 | 62.3 | 79.1 | 28.6 | 81 | 37.8 | 51.7 | 72.1 | 70.3 | 59.9 | 63 | 58.7 |
| CN(C)CCOc1ccc(/C(=C(/CCCl)c2ccccc2)c2ccccc2)cc1 [Toremifene] (10000 nM) | 98.3 | 63.8 | 83.7 | 96.8 | 65.9 | 88 | 75.5 | 90.7 | 77.9 | 85.2 | 48.4 | 49.1 | 68.5 | 82.1 | 86.7 |
| CC(C)C[C@@H](C(=O)N[C@H](C(=O)OC1CCCC1)c1ccccc1)[C@H](O)C(=O)NO [Tosedostat] (10000 nM) | 71.9 | 47.6 | 64.5 | 55.1 | 35.7 | 87.6 | 24.6 | 47.9 | 89 | 36.6 | 55.9 | 60.4 | 24.8 | 63.1 | 67.1 |
| Cc1[nH]c2ccccc2c1CCNCc1ccc(/C=C/C(=O)NO)cc1 [Panobinostat] (1000 nM) | 8.29 | 2.01 | 30.2 | 13.4 | 6.11 | 13.9 | 7.12 | 9.89 | 6.35 | 3.87 | 29.4 | 20.7 | 7.51 | 5.17 | 0.3 |
| O=C(/C=C/c1cccc(S(=O)(=O)Nc2ccccc2)c1)NO [Belinostat] (10000 nM) | 44.5 | 2.73 | 29.3 | 12.4 | 2.16 | 5.73 | 8.88 | 7.76 | 5.36 | 6.45 | 26.1 | 20.5 | 5.7 | 7.71 | -0.03 |
| NC(=O)c1ccc(I)c([N+](=O)[O-])c1 [Iniparib] (10000 nM) | 84.7 | 73.2 | 73.3 | 92.1 | 93.9 | 90.2 | 79 | 98.2 | 88 | 116 | 80 | 86.9 | 91 | 95.5 | 88.8 |
| CO[C@H]1C[C@@H]2CC[C@@H](C)[C@@](O)(O2)C(=O)C(=O)N2CCCC[C@H]2C(=O)O[C@H]([C@H](C)C[C@@H]2CC[C@@H](OP(C)(C)=O)[C@H](OC)C2)CC(=O)[C@H](C)/C=C(\C)[C@@H](O)[C@@H](OC)C(=O)[C@H](C)C[C@H](C)/C=C/C=C/C=C/1C [Ridaforolimus] (100 nM) | 62 | 62.8 | 82.5 | 67.1 | 88.4 | 72.8 | 56.7 | 64.8 | 108 | 66.8 | 68.3 | 69.3 | 81.5 | 69.6 | 58.8 |
